Data from US20010044416A1 (priority 2000, published 2001).

Legend:
[1] = system: HBsAg-specific antibodies (anti-HBs); set-up: species or system BALB/c mice; conditions: mouse, in vivo, po
[2] = system: HBsAg-specific antibodies (anti-HBs); set-up: species or system BALB/c mice; conditions: mouse, in vivo
[3] = system: HBsAg-specific antibodies; set-up: species or system BALB/c mice; conditions: mouse, in vivo, po
[4] = in vivo; cited from earlier work

Substance | HBsAg-specific IgG titers, non-CpG ODN versus equivalent dose of CpG ODN [1] | anti-HBs IgG titers in plasma [1] | antibody isotypes (IgG1 Th2-like, IgG2a Th1-like) as indication of Th-bias [1] | enhancement of immune responses (anti-HBs) with IM delivery [2] | HBsAg-specific IgG in plasma [3] | dose causing severe diarrhea [4] [µg]
5′-TCCAGGACTTCTCTCAGGTT-3′ [non-CpG ODN #1982] | no significant difference | much higher levels | predominance of IgG1 | not | now detected | 
Cholera toxin [CT] |  | much higher levels | predominance of IgG1 |  |  | 1 to 5
TCCATGACGTTCCTGACGTT [CpG ODN #1826] |  | much higher levels | equally mixed Th1/Th2 response | enhancement of immune responses | now detected | 
